Measurements reported in patent US12616674B2, “Anti-fibrotic NEU3 inhibitor compounds and methods of use” (The Texas A&M University System, priority 2019, dated 2026).

Legend:
[1] = tested on: bleomycin-induced pulmonary fibrosis, C57BL/6 mice; experiment: Bleomycin-induced pulmonary fibrosis in mice; assay type: in vivo, mouse; conditions: for fibrosis-associated inflammation (BAL cell counts, CD11b, CD11c, CD45, Ly6G, Ly6C): daily i.p. from day 10, 1 mg/kg (2-acetyl pyridine, methyl picolinate) or 0.1 mg/kg (AMPCA), day 21, FIGS. 8A-F; for bleomycin-induced decrease in weights of mice / bleomycin-induced collagen deposition in the lungs (Sirius red staining): daily i.p. from day 10, 1 mg/kg (2AP, MP) or 0.1 mg/kg (AMPCA); for bleomycin-induced decrease in weights of mice: 21 days, FIGS. 11A-D; for bleomycin-induced collagen deposition in the lungs (Sirius red staining): day 21, FIGS. 9-10
Procedure: To determine if selected compounds affect pulmonary fibrosis in mice, 8-10 week old 26-30 g male C57BL/6 mice (Jackson, Bar Harbor, ME) were given an oropharyngeal aspiration of 3 units/kg bleomycin (2246-10, 50, BioVision Incorporated, Milpitas, CA) in 50 μl of 0.9% saline to induce symptoms of pulmonary fibrosis or oropharyngeal saline as a control following Current protocols in mouse biology 2, 167-175, (2012). Starting 10 days after bleomycin had been administered, some of the bleomycin-treated mice were given daily intraperitoneal injections of 100 μl of PBS or 1 mg/kg 2-acetyl pyridine (sc-254121, Santa Cruz Biotechnology, Inc. Dallas, TX) or 1 mg/kg methyl picolinate (sc-228575, Santa Cruz Biotechnology, Inc.) or 0.1 mg/kg of 2-piperidinecarboxylic acid, 4-amino-1-methyl (A00285-13785-026, Sundia, Shanghai, China) in 100 μl PBS. At day 21, mice were sacrificed by CO2 inhalation, and bronchoalveolar lavage (BAL) fluid and cytospins of BAL cells were obtained as previously described in Current protocols in mouse biology 2, 167-175 (2012); Proceedings of the National Academy of Sciences of the United States of America 112, 11929-11934 (2015); Proceedings of the National Academy of Sciences of the United States of America 111, 18291-18296 (2014); Proceedings of the National Academy of Sciences of the United States of America 112, 8385-8390 (2015); and Public Library of Science ONE 9, e93730 (2014) (all hereby incorporated by reference). The total cells from cytospins were quantified as described previously in Current protocols in mouse biology 2, 167-175, (2012); and Public Library of Science ONE 9, e93730 (2014). The lungs were removed and inflated with Surgipath frozen section compound (3801480, Leica, Buffalo Grove, IL) and preserved at −80° C. 6-10 μm cryosections of lungs were placed on glass slides (48311-703, VWR). The experiment was performed in accordance with the recommendations in the Guide for the Care and Use of Laboratory Animals of the National Institutes of Health. The Texas A&M University Animal Use and Care Committee approved the protocol.
Cryosections were stained for collagen with 0.1% Sirius red (09400, Polysciences, Warrington, PA), in saturated picric acid (26853-07, Electron Microscopy Sciences, Hatfield, PA) for 15 minutes at room temperature. The sections were washed in 0.5% acetic acid in water (v/v) for 10 minutes with two washes at room temperature. After dehydrating the sections in ethanol, the sections were mounted in Permount mounting medium (17986-01, Electron Microscopy Sciences). The sections were imaged on a Nikon Microphot-FX (Nikon, Tokyo, Japan), and staining was quantified with ImageJ.
Immunohistochemistry on BAL cytospins was performed as described previously in Public Library of Science ONE 9, e93730 (2014); Proceedings of the National Academy of Sciences of the United States of America 111, 18291-18296 (2014); and Proceedings of the National Academy of Sciences of the United States of America 112, 8385-8390 (2015) using anti-CD11b (101202, clone M1/70 BioLegend, San Diego, CA) to detect blood and inflammatory macrophages, anti-CD11c (M100-3, clone 223H7, MBL International, Woburn, MA) to detect alveolar macrophages and dendritic cells, anti-CD45 (103102, clone 30-F11, BioLegend) for total leukocytes, anti-Ly-6G (127602, clone 1A8, BioLegend) to detect neutrophils, and anti-Ly-6C (128001, clone HK1.4, BioLegend) to detect a variety of inflammatory immune system cells, and with isotype-matched irrelevant antibodies (BioLegend) as controls.

[2] = tested on: NEU3-induced IL-6 production by human PBMC; experiment: NEU3-induced extracellular IL-6 accumulation by human PBMC (IL-6 concentration assay); assay type: cell-based; conditions: NEU3, serum-free medium, 48 hours
Procedure: Human peripheral blood was collected from healthy volunteers who gave written consent and with specific approval from the Texas A&M University human subjects review board. Peripheral blood mononuclear cells (PBMC) were isolated from the blood using Ficoll-Paque density gradient centrifugation (95021-205, GE Healthcare, Cincinnati, OH) following the manufacture's protocol. PBMC were cultured at […] in 96-well flat bottom tissue culture plates (type 62406-081; […] Louis, MO)) in a final volume of 200 μl per well. […] The sialidases were diluted in 100 μl of the same medium the cells were in, and added to 100 μl of cells at 1×10^5 cells/ml to make the total volume in a well 200 μl with 1×10^4 cells/well. The cells were then incubated at 37° C. in a humidified incubator with 5% CO2. The culture supernatants were collected after two or five days and assayed using an IL-6 ELISA kit (430501, Biolegend, San Diego, CA) following the manufacturer's protocol, reading absorbance with a SynergyMX plate reader (BioTek, Winooski, VT). Statistics were analyzed using Prism software (Graphpad, La Jolla, CA). At least three different donors were used for each assay. […] IL-6 in the culture supernatant was then assayed as described above. At least three different donors were used for each assay.

| SMILES | fibrosis-associated inflammation (BAL cell counts, CD11b, CD11c, CD45, Ly6G, Ly6C) [1] | bleomycin-induced decrease in weights of mice [1] | bleomycin-induced collagen deposition in the lungs (Sirius red staining) [1] | IC50 [2] [µM] |
| --- | --- | --- | --- | --- |
| CC(=O)c1ccccn1 [Compound 5, 2-acetylpyridine] | can reduce fibrosis-associated inflammation | attenuated | reduced | 32 |
| COC(=O)c1ccccn1 [Compound 6, methyl picolinate] | can reduce fibrosis-associated inflammation | attenuated | reduced | > 100 |
| CN1CCC(N)CC1C(=O)O (stereo not drawn) [Compound 26, 2-piperidinecarboxylic acid, 4-amino-1-methyl] | can reduce fibrosis-associated inflammation | attenuated | reduced | 1e-05 |
